Results taken from the supplement of paper PMC10331698.
± gives the standard deviation of the averaged measurements.

Legend:
Assay in all cases: level (log10 ratio to DMSO vehicle control); higher = higher biomarker level / cell amount than vehicle control
Details in all cases: in DMSO
[1] = compound: FC(F)(F)C(F)(F)C(F)(F)C(F)(F)C(F)(F)C(F)(F)C(F)(F)CCI [1-Iodo-1H,1H,2H,2H-perfluorononane]
Experimental: (§1)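 BioMAP Diversity Plus panel of 12 human primary cell co-culture systems (3C, 4H, LPS, SAg, BT, BF4T, BE3C, CASM3C, HDF3CGF, KF3CT, MyoF, Mphg). Compounds were added 1 h before stimulation and left for 24 h (MyoF 48 h; BT 72 h for soluble read-outs or 6 d for IgG). Biomarkers were read by ELISA, cytotoxicity by SRB, PBMC viability and proliferation by Alamar Blue. Each well value was divided by the mean of 8 DMSO control wells on the same plate and log10 transformed; duplicate blinded samples were tested at 4 concentrations.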

[2] = compound: CC(C)(C)C(=O)CC(=O)C(F)(F)C(F)(F)C(F)(F)F [(Heptafluorobutanoyl)pivaloylmethane]
Experimental: as §1

Perfluorooctanamidine = compound: N=C(N)C(F)(F)C(F)(F)C(F)(F)C(F)(F)C(F)(F)C(F)(F)C(F)(F)F [Perfluorooctanamidine]
Experimental: as §1

Perfluorooctanamide = compound: NC(=O)C(F)(F)C(F)(F)C(F)(F)C(F)(F)C(F)(F)C(F)(F)C(F)(F)F [Perfluorooctanamide]
Experimental: as §1

[3] = compound: O=P(O)(O)CCC(F)(F)C(F)(F)C(F)(F)C(F)(F)C(F)(F)C(F)(F)C(F)(F)C(F)(F)F [((Perfluorooctyl)ethyl)phosphonic acid]
Experimental: as §1

[4] = compound: O=S(=O)(O)C(F)(F)C(F)(F)C(F)(F)C(F)(F)F [Perfluorobutanesulfonic acid]
Experimental: as §1

1-(Perfluorohexyl)octane = compound: CCCCCCCCC(F)(F)C(F)(F)C(F)(F)C(F)(F)C(F)(F)C(F)(F)F [1-(Perfluorohexyl)octane]
Experimental: as §1

Row | Test System | level (log10) ([1]; 6700 nM) | level (log10) ([1]; 20000 nM) | level (log10) ([2]; 6700 nM) | level (log10) ([2]; 20000 nM) | level (log10) ([2]; 60000 nM) | level (log10) (Perfluorooctanamidine; 6700 nM) | level (log10) (Perfluorooctanamidine; 20000 nM) | level (log10) (Perfluorooctanamidine; 60000 nM) | level (log10) (Perfluorooctanamide; 6700 nM) | level (log10) (Perfluorooctanamide; 20000 nM) | level (log10) (Perfluorooctanamide; 60000 nM) | level (log10) ([3]; 6700 nM) | level (log10) ([3]; 20000 nM) | level (log10) ([3]; 60000 nM) | level (log10) ([4]; 6700 nM) | level (log10) ([4]; 20000 nM) | level (log10) ([4]; 60000 nM) | level (log10) (1-(Perfluorohexyl)octane; 6700 nM) | level (log10) (1-(Perfluorohexyl)octane; 20000 nM)
1 | MyoF:Collagen IV | 0.027 ± 0.0042 | 0.082 ± 0.018 | -0.0345 ± 0.021 | -0.0295 ± 0.0092 | 0.0005 ± 0.0021 | 0.0195 ± 0.03 | 0.044 ± 0.018 | 0.117 | -0.0335 ± 0.026 | -0.0345 ± 0.042 | -0.079 ± 0.064 | -0.0005 ± 0.013 | 0.012 ± 0.025 | -0.01 ± 0.057 | 0.04 ± 0.0057 | 0.0055 ± 0.033 | 0.016 ± 0.013 | 0.0135 ± 0.0064 | 0.0505 ± 0.069
2 | MyoF:Decorin | 0.014 ± 0.0042 | 0.038 ± 0.05 | 0.0195 ± 0.059 | 0.018 ± 0.03 | 0.0365 ± 0.021 | 0.004 ± 0.0099 | 0.0055 ± 0.013 | 0.07 | -0.0145 ± 0.05 | 0.027 ± 0.078 | 0.0305 ± 0.04 | 0.0185 ± 0.00071 | 0.028 ± 0.0099 | 0.0305 ± 0.046 | 0.0315 ± 0.012 | 0.03 ± 0.016 | 0.083 ± 0.013 | 0.005 ± 0.011 | 0.0265 ± 0.032
3 | MyoF:MMP-1 | -0.012 ± 0.013 | -0.0145 ± 0.025 | -0.036 ± 0.013 | -0.0255 ± 0.025 | 0.025 ± 0.058 | -0.025 ± 0.024 | -0.01 | 0.062 | -0.0075 ± 0.011 | -0.013 ± 0.04 | -0.0045 ± 0.026 | -0.036 ± 0.0085 | 0.007 ± 0.0085 | 0.0865 ± 0.04 | 0.0385 ± 0.005 | 0.065 ± 0.0071 | 0.0885 ± 0.0035 | -0.002 ± 0.017 | -0.01 ± 0.0085
4 | MyoF:PAI-I | -0.002 ± 0.02 | -0.0025 ± 0.0035 | 0.009 ± 0.016 | 0.009 ± 0.024 | 0.0195 ± 0.018 | 0.0015 ± 0.0064 | -0.0075 ± 0.013 | 0.021 | -0.009 | -0.014 ± 0.0071 | 0.005 ± 0.0014 | -0.0215 ± 0.0092 | -0.0075 ± 0.0064 | -0.0285 ± 0.035 | -0.011 ± 0.013 | 0.0065 ± 0.0078 | 0.0005 ± 0.0064 | -0.008 ± 0.0014 | -0.007 ± 0.0042
5 | MyoF:SRB | 0.016 ± 0.0014 | 0.0325 ± 0.0021 | -0.0015 ± 0.0064 | -0.0085 ± 0.012 | -0.002 ± 0.0057 | 0.007 ± 0.0028 | -0.003 ± 0.0042 | 0.013 | -0.006 ± 0.0042 | 0.0045 ± 0.012 | -0.0055 ± 0.011 | 0.002 ± 0.0042 | 0.0025 ± 0.0064 | 0.004 | -0.002 ± 0.0071 | -0.0035 ± 0.00071 | 0.0085 ± 0.00071 | 0.011 ± 0.016 | 0.006 ± 0.0042
